Entries after “also recorded” stand apart in the source; their conditions may differ.
Experiments:
[1] = system: TRAP positive multinucleated osteoclasts; assay: TRAP positive multinucleated osteoclasts from bone marrow cells; format: cell-based, rat; conditions: RANKL and GMCSF, 12 days
Method: FIG. 7: Effect of the indicated compounds on TRAP positive multinucleated osteoclasts. Bone marrow cells from rat femur was cultured in Alpha MEM+10% csFBS without phenol red in the presence or absence of 30 ng/ml RANKL and 10 ng/ml GMCSF. The cells were treated for 12 days and were stained for tartarate resistant acid phosphatase activity (TRAP) and multinucleated osteoclasts were counted.
Bone marrow cells isolated from rat femur were cultured in Alpha MEM without phenol red+10% sterile FBS without phenol red in the presence or absence of […] RANKL and 10 ng/ml GMCSF. The cells were treated for 12 days were stained for tartarate resistant acid phosphatase activity (TRAP) positive multinucleated osteoclasts and were counted.

uterus = assay: In vivo estrogenic activity, uterine weight; design: species or system rat; conditions: female rats; for estrogenic activity in terms of uterine weight: compound alone
Method: Rats that were administered the vehicle alone served as controls.

[2] = system: pS2 (gene encoding the trefoil peptides) in MCF-7 cells; assay: pS2 gene expression in MCF-7 cells (realtime RT-PCR); format: cell-based
Method: MCF-7 cells were plated at 500,000 cells per well of a 6 well plate. RNA was isolated and the message levels of pS2 (gene encoding the trefoil peptides) measured and normalized to 18S ribosomal RNA by realtime polymerase chain reaction (rtPCR).
FIG. 11: Agonistic activity of the indicated compounds in MCF-7 cells. MCF-7 cells were plated at 500,000 cells per well of a 6 well plate. RNA was isolated and the message levels of pS2 gene measured and normalized to 18S ribosomal RNA by realtime rtPCR.
MCF-7 cells were plated at 500,000 cells per well of a 6 well plate. The cells were serum starved for 3 days and then were treated as above for 16 hrs. RNA was isolated and gene expression levels assessed by realtime RT-PCR, following normalization to 18S ribosomal RNA.

ER-α = molecular target: T1, ER-α (Rattus norvegicus, UniProt P06211); assay: ER-α transactivation, ERE-LUC in COS or 293 cells; format: cell-based; design: % estardiol activity, ER-α: dose or concentration left out as unconfirmed; conditions: for inhibition of estradiol (E2) induced ER-α activity (luciferase expression): with estrogen
T1 sequence (P06211 1-600): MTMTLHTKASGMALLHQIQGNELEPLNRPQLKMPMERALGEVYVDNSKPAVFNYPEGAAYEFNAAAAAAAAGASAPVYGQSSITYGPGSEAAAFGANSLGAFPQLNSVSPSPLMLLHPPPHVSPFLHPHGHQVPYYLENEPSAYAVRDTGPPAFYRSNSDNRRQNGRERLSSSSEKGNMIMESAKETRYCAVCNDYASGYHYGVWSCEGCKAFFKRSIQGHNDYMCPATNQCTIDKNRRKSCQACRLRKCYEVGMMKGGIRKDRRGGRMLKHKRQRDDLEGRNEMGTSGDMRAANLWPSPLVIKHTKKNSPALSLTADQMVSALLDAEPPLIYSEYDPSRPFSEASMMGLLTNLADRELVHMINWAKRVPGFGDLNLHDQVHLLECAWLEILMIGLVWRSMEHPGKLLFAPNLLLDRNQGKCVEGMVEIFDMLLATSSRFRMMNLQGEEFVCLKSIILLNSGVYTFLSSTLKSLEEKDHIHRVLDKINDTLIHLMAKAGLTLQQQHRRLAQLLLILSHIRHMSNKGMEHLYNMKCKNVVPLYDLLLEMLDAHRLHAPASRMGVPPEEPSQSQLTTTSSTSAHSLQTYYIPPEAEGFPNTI

Structure (SMILES) | osteoclast differentiation / osteoclast activity [1] | estrogenic activity in terms of uterine weight (uterus) | uterine weight increase, with ICI-182,780 (uterus; with ICI-182,780) | uterine weight, coadministered with estrogen (uterus; with estrogen) | pS2 expression ([2]; 16 hrs) | inhibition of estrogen-induced upregulation of pS2 gene expression ([2]; with estrogen) | % estardiol activity, ER-α (ER-α) [%] | ER-α activity (luciferase expression), compound alone (ER-α; COS or 293 cells) | inhibition of estradiol (E2) induced ER-α activity (luciferase expression) (ER-α; COS or 293 cells) | IC50 (ER-α; ER alpha antagonists) [nM] | osteoclast differentiation / osteoclast activity ([1]; hydrochloride)
O=C(c1ccccc1)N(c1ccc(O)cc1)c1ccc(OCCN2CCCCC2)cc1 [Compound 4a, N-(4-hydroxyphenyl)-N-[4-(2-piperidin-1-ylethoxy)-phenyl]-benzamide] | minimally but dose-dependently suppressed the osteoclast differentiation | exhibited estrogenic activity, in terms of increased uterine weight; also recorded: exhibited estrogenic activity, in vivo | ICI-182,780 reversed 4a and 4g effects on uterine weight increase | an increase in uterine weight was observed | only minimally did so; also recorded: partial agonist of ER action in MCF-7 cells | inhibited estrogen-induced upregulation of pS2 gene expression | 29.9 | no effect on ER-α activity; also recorded: neither SERM alone showed any such effect | inhibited the estradiol (E2) induced ER-α activity to basal levels; also recorded: inhibited estrogen stimulated luciferase expression | 35 | –
Cl.O=C(c1ccc(F)cc1)N(c1ccc(O)cc1)c1ccc(OCCN2CCCCC2)cc1 [Compound 4h, N-(4-hydroxyphenyl)-N-[4-(2-piperidin-1-ylethoxy)-phenyl]-4-fluroro-benzamide hydrochloride] | – | exhibited no estrogenic, or anti-estrogenic activity in uterus | – | – | – | – | 17.4 | – | inhibited estrogen stimulated luciferase expression | – | minimally but dose-dependently suppressed the osteoclast differentiation; also recorded: highly suppressive of osteoclast activity

— US8158828B2, “Nuclear receptor binding agents” (priority 2005, dated 2012)
